The values below are quoted from earlier work in publication PMC7455853 (European Journal of Medicinal Chemistry, 2020).

The term IC50 denotes the concentration needed to halve the response being measured.

The test system of one series is HIF-1. The following applies: read-out: HIF-1 inhibitory activity IC50; HeLa cells.
Series [1] relates to tubulin (colchicine binding). The following applies: at 5 μM.
A further series relates to NF–Y binding to the ICB2. The following applies: EMSA.

SMILES strings stand for the structures. Structures can show the parent of a compound that is named as a salt.

On to `O=C(Cc1ccc(O)cc1)n1cc(-c2ccc(O)cc2)c(-c2ccc(O)cc2)c1` [neolamellarin A], for which the IC50 with HIF-1 was 10.8 µM.
`COc1ccc2cc3[n+](cc2c1OC)CCc1cc2c(cc1-3)OCO2` [berberine hydrochloride]: the IC50 in the series with SrtA was 120 µM.
For `Brc1cccc(Nc2ncnc3[nH]ccc23)c1` [compound 8], the IC50 in the series with EGFR was 3.76 nM; with AURKA it was 1990 nM.
On to `COc1ccc(/C=C\c2cc(OC)c(OC)c(OC)c2)cc1O` [CA-4, combretastatin A-4], for which, in series [1], the “inhibition of colchicine binding” value was 98%.
For `COc1ccc(-c2nc3ccc(C(=O)Nc4cn(C)c(C(=O)Nc5cc(C(=O)NCCCN(C)C)n(CCCN)c5)n4)cc3[nH]2)cc1` [compound 19a], in the series with ICB2 site, the DNA binding affinity is 0.5 µM. Besides, the “doses giving dose-dependent inhibition of NF–Y binding to the ICB2” value in the series on NF–Y binding to the ICB2 is at least 3 µM.
